Data set [1] has as its system Alternaria solani. Kind of data set: Alternaria test (tomato)/protective. Type of data set: in vivo. The conditions noted are these: 168 h, 500 ppm active substance, protective, evaluation 7 days after inoculation, read-out: degree of effectiveness. How it is done: Alternaria Test (Tomato)/Protective [table] To prepare a suitable active substance composition, 1 part by weight of active substance is mixed with the given amounts of solvent and emulsifier and the concentrate is diluted to the desired concentration using water. For the testing of protective effectiveness, young tomato plants are sprayed with the active substance composition in the application rate given. 1 day after the treatment, the plants are inoculated with a suspension of the spores of Alternaria solani and then stand at 100% relative humidity and 20° C. for 24 h. Subsequently, the plants stand at 96% relative humidity and a temperature of 20° C. Evaluation is carried out 7 days after the inoculation. In this connection, 0% means a degree of effectiveness corresponding to that of the control, while a degree of effectiveness of 100% means that no infestation is observed.

In data set [2] the test system is Sphaerotheca fuliginea. Kind of data set: Sphaerotheca test (cucumber)/protective. The conditions noted are these: Podosphaera fuliginea, 168 h, 100 ppm active substance, protective, evaluation 7 days after inoculation, read-out: degree of effectiveness. In kind it is in vivo. How it is done: Sphaerotheca Test (Cucumber)/Protective [table] To prepare a suitable active substance composition, 1 part by weight of active substance is mixed with the given amounts of solvents and emulsifier and the concentrate is diluted to the desired concentration using water. For the testing of protective effectiveness, young plants are sprayed with the active substance composition in the application rate given. After the spray coating has been dried on, the plants are inoculated with an aqueous suspension of spores of Sphaerotheca fuliginea. The plants are then placed in a greenhouse at approximately 23° C. and a relative humidity of approximately 70%. Evaluation is carried out 7 days after the inoculation. In this connection, 0% means a degree of effectiveness corresponding to that of the control, while a degree of effectiveness of 100% means that no infestation is observed.

Data set [3] deals with Uromyces appendiculatus. Kind of data set: Uromyces test (beans)/protective. In kind it is in vivo. The conditions noted are these: 240 h, 100 ppm active substance, protective, evaluation 10 days after inoculation, read-out: degree of effectiveness. As for the experimental part:
Uromyces Test (Beans)/Protective [table] To prepare a suitable active substance composition, 1 part by weight of active substance is mixed with the given amounts of solvents and emulsifier and the concentrate is diluted to the desired concentration using water. For the testing of protective effectiveness, young plants are sprayed with the active substance composition in the application rate given. After the spray coating has been dried on, the plants are inoculated with an aqueous suspension of the spores of the bean rust pathogen Uromyces appendiculatus and then remain in an incubation chamber at approximately 20° C. and 100% relative humidity for 1 day. The plants are then placed in a greenhouse at approximately 21° C. and a relative humidity of approximately 90%. Evaluation is carried out 10 days after the inoculation. In this connection, 0% means a degree of effectiveness corresponding to that of the control, while a degree of effectiveness of 100% means that no infestation is observed.

The test system of data set [4] is Pyrenophora teres. Kind of data set: Pyrenophora teres test (barley)/protective. The conditions noted are these: 500 ppm active substance, protective, evaluation 7-9 days after inoculation, read-out: degree of effectiveness. Type of data set: in vivo. As for the experimental part: Pyrenophora teres Test (Barley)/Protective
(§1) To prepare a suitable active substance composition, 1 part by weight of active substance is mixed with the given amounts of solvent and emulsifier and the concentrate is diluted to the desired concentration using water.
For the testing of protective effectiveness, young barley plants are sprayed with the active substance composition in the application rate given. 1 day after the treatment, the plants are inoculated with an aqueous suspension of the spores of Pyrenophora teres and then remain at 100% relative humidity and 20° C. for 48 h. Subsequently, the plants are placed in a greenhouse at 80% relative humidity and a temperature of 20° C.
Evaluation is carried out 7-9 days after the inoculation. In this connection, 0% means a degree of effectiveness corresponding to that of the control, while a degree of effectiveness of 100% means that no infestation is observed.

Data set [5] is described as follows: physchem.
The subject of data set [6] is Puccinia recondita var. tritici. Kind of data set: Puccinia test (wheat)/protective. In kind it is in vivo. The conditions noted are these: 240 h, 1000 ppm active substance, protective, evaluation 10 days after inoculation, read-out: degree of effectiveness. How it is done: Puccinia Test (Wheat)/Protective
as §1
For the testing of protective effectiveness, young plants are sprayed with the active substance composition in the application rate given. After the spray coating has been dried on, the plants are sprayed with a suspension of the conidia of Puccinia recondita var. tritici. The plants remain in an incubation chamber at 20° C. and 100% relative humidity for 48 hours.
The plants are then placed in a greenhouse at a temperature of approximately 20° C. and a relative humidity of 80%, in order to encourage the development of rust pustules.
Evaluation is carried out 10 days after the inoculation. In this connection, 0% means a degree of effectiveness corresponding to that of the control, while a degree of effectiveness of 100% means that no infestation is observed.

Data set [7] concerns Blumeria graminis f.sp. hordei. Kind of data set: Blumeria graminis test (barley)/protective. In kind it is in vivo. Particulars: 168 h, 1000 ppm active substance, protective, evaluation 7 days after inoculation, read-out: degree of effectiveness. How it is done:
Blumeria graminis Test (Barley)/Protective
as §1
For the testing of protective effectiveness, young plants are sprayed with the active substance composition in the application rate given.
After the spray coating has been dried on, the plants are dusted with spores of Blumeria graminis f.sp. hordei.
The plants are placed in a greenhouse at a temperature of approximately 20° C. and a relative humidity of approximately 80%, in order to encourage the development of mildew pustules.
Evaluation is carried out 7 days after the inoculation. In this connection, 0% means a degree of effectiveness corresponding to that of the control, while a degree of effectiveness of 100% means that no infestation is observed.

Data set [8] deals with Phakopsora pachyrhizi. Kind of data set: Phakopsora test (soya)/protective. Type of data set: in vivo. The conditions noted are these: 264 h, 100 ppm active substance, protective, evaluation 11 days after inoculation, read-out: degree of effectiveness. As for the experimental part: Phakopsora Test (Soya)/Protective
as §1
For the testing of protective effectiveness, young plants are sprayed with the active substance composition in the application rate given. After the spray coating has been dried on, the plants are inoculated with an aqueous suspension of the spores of Phakopsora pachyrhizi and then remain in an incubation chamber at approximately 20° C. and 80% relative humidity for 1 day.
Evaluation is carried out 11 days after the inoculation. In this connection, 0% means a degree of effectiveness corresponding to that of the control, while a degree of effectiveness of 100% means that no infestation is observed.

Data set [9] in a line: log P determination (neutral / acidic, pH 2.3).

Read-outs that look alike come from different tables or passages of the source. Bounds are passed on as bounds.

Usually logP stands for a log measure of how a compound divides between an organic and an aqueous phase. High values mean a more lipophilic compound, low ones a more hydrophilic compound. For `CCN(C)C=Nc1cc(C)c(Oc2nc(C3(C)CC3)c(Cl)s2)cc1C` [Compound 21, N′-(4-{[5-Chloro-4-(1-methylcyclopropyl)-1,3-thiazol-2-yl]oxy}-2,5-dimethylphenyl)-N-ethyl-N-methylimidoformamide], the pest or weed control at 500 ppm in [1] and in data set [4] was at least 70% throughout. Besides, the pest or weed control at 100 ppm in [2] is at least 70%; in data set [3] it was at least 70%; in [8], at least 80%. Further, the logP in data set [5] worked out at 6; in data set [5] (pH 2.3), 1.97. Also, the pest or weed control at 1000 ppm in data set [6] and in data set [7] was at least 70% in each case.

`Cc1cc(Oc2nc(C3(Cl)CC3)cs2)c(C)cc1/N=C/N1CCCCC1` [Compound 6, 4-{[4-(1-Chlorocyclopropyl)-1,3-thiazol-2-yl]oxy}-2,5-dimethyl-N-[(1E)-piperidin-1-ylmethyl-idene]aniline]: the “log P neutral” value in data set [9] (neutral) is on record as 5.49.

Take `Cc1cc(Oc2nc(C3(C)CC3)ns2)c(C)cc1/N=C/N1CCCCC1` [Compound 11, 5-Dimethyl-4-{[3-(1-methylcyclopropyl)-1,2,4-thiadiazol-5-yl]oxy}-N-[(1E)-piperidin-1-yl-methylidene]aniline]: in data set [9], the “log P acidic” value is listed as 2.13.

Consider `CCN(C)C=Nc1cc(C)c(Oc2nc(C3(Cl)CC3)cs2)cc1C` [Compound 5, N′-(4-{[4-(1-Chlorocyclopropyl)-1,3-thiazol-2-yl]oxy}-2,5-dimethylphenyl)-N-ethyl-N-methyl-imidoformamide], for which the pest or weed control at 500 ppm in [1] and in [4] was at least 70% in each case. The pest or weed control at 100 ppm in [2] is at least 70%; in data set [3] it was at least 70%; in [8] it was at least 80%. Further, in data set [5], the logP was 4.8. Moreover, the pest or weed control at 1000 ppm in [6] and in data set [7] was at least 70% throughout.

Regarding “[5-Chloro-4-(1-methylcyclopropyl)-1,3-thiazol-2-yl]oxy-2,5-dimethylaniline”, the “log P (pH 2.3)” value was 4.13.

For `CCN(C)C=Nc1cc(C)c(Oc2nc(C3CC3C)ns2)cc1C` (centres unmarked) [Compound 14, N′-(2,5-Dimethyl-4-{[3-(2-methylcyclopropyl)-1,2,4-thiadiazol-5-yl]oxy}phenyl)-N-ethyl-N-methylimidoformamide], the pest or weed control at 500 ppm in data set [1] and in data set [4] was at least 70% throughout. The pest or weed control at 100 ppm was at least 70% in [2], at least 70% in data set [3] and at least 80% in [8]. The same molecule came in with a logP in data set [5] (pH 2.3) of 1.96. In addition, the pest or weed control at 1000 ppm in [6] and in data set [7] was at least 70% in each case.

Take `CCN(C)C=Nc1cc(C)c(Oc2nc(C3(Cl)CC3)c(Cl)s2)cc1C` [Compound 7, N′-(4-{[5-Chloro-4-(1-chlorocyclopropyl)-1,3-thiazol-2-yl]oxy}-2,5-dimethylphenyl)-N-ethyl-N-methylimidoformamide]: the pest or weed control at 500 ppm in [1] and in data set [4] was at least 70% throughout. The pest or weed control at 100 ppm in data set [2] was at least 70%; in [3], at least 70%; in data set [8], at least 80%. For the same molecule, in data set [5] (pH 2.3), the logP was 1.82. Further, the pest or weed control at 1000 ppm in data set [6] and in data set [7] was at least 70% in each case.

Consider `Cc1cc(Oc2nc(C3CC3)ns2)c(C)cc1/N=C/N1CCCCC1` [Compound 3, 4-[(3-Cyclopropyl-1,2,4-thiadiazol-5-yl)oxy]-2,5-dimethyl-N-[(1E)-piperidin-1-ylmethyl-idene]aniline], for which, in data set [9], the “log P acidic” value worked out at 1.75.

For the molecule `Cc1cc(Oc2nc(C3(C)CC3)cs2)c(C)cc1/N=C/N1CCCCC1` [Compound 23, 2,5-Dimethyl-4-{[4-(1-methylcyclopropyl)-1,3-thiazol-2-yl]oxy}-N-[(1E)-piperidin-1-ylmethyl-idene]aniline], the “log P acidic” value in data set [9] came to 2.05.

In the case of `Cc1cc(Oc2nc(C3CC3)ns2)c(C)cc1/N=C/N1CCSCC1` [Compound 4, 4-[(3-Cyclopropyl-1,2,4-thiadiazol-5-yl)oxy]-2,5-dimethyl-N-[(1E)-thiomorpholin-4-ylmethyl-idene]aniline], in data set [9], the “log P acidic” value is recorded as 1.73.

For the molecule `CCN(C)C=Nc1cc(C)c(Oc2nc(C3(C)CC3)ns2)cc1C` [Compound 9, N′-(2,5-Dimethyl-4-{[3-(1-methylcyclopropyl)-1,2,4-thiadiazol-5-yl]oxy}phenyl)-N-ethyl-N-methylimidoformamide], the pest or weed control at 500 ppm in data set [1] and in data set [4] was at least 70% each time. The results for the pest or weed control at 100 ppm in [2], in data set [3] and in data set [8] were at least 70%, at least 70% and at least 80%, respectively. In data set [5] (pH 2.3), this molecule registered a logP of 1.94. Also, the pest or weed control at 1000 ppm in [6] and in data set [7] was at least 70% in each case.

On to `Cc1cc(Oc2nc(C3(Cl)CC3)c(Cl)s2)c(C)cc1/N=C/N1CCCCC1` [Compound 8, 4-{[5-Chloro-4-(1-chlorocyclopropyl)-1,3-thiazol-2-yl]oxy}-2,5-dimethyl-N-[(1E)-piperidin-1-ylmethylidene]aniline], for which the pest or weed control at 500 ppm in data set [1] and in data set [4] was at least 70% in each case. In addition, the pest or weed control at 100 ppm is at least 70% in [2], at least 70% in data set [3] and at least 80% in data set [8]. The logP in data set [5] came to 6.02; in data set [5] (pH 2.3), 2.47. The pest or weed control at 1000 ppm in data set [6] and in data set [7] was at least 70% each time.
